# Laboratory results: patent US11312723B2, “Pyranopyrazole and pyrazolopyridine immunomodulators for treatment of autoimmune diseases” (The Rockefeller University, priority 2017, dated 2022)
# Legend:
# Human FXIIa = Human FXIIa (Homo sapiens (Human), UniProt P00748); assay: Factor XIIa (FXIIa) inhibitory activity, chromogenic substrate (Pefachrome XIIa) cleavage; type: biochemical; conditions: 10 min pre-incubation, Pefachrome XIIa 400 μM
# [1] = tested on: Collagen-Induced Arthritis (CIA) in DBA/1 Mice; assay: Collagen-Induced Arthritis (CIA) in DBA/1 mice, model of rheumatoid arthritis; type: in vivo, mouse
# Source text: For in vivo confirmation of efficacy, Example 35 was studied in a model of rheumatoid arthritis. Collagen-Induced Arthritis (CIA) in DBA/1 Mice is one of the most commonly used animal models of human rheumatoid arthritis. The joint inflammation which develops in CIA resembles inflammation in human patients with rheumatoid arthritis. Therapeutic agents that reduce rheumatoid arthritis in people (e.g. NSAIDs, corticosteroids, methotrexate, etc) are also efficacious in CIA, and efficacy in the mouse CIA model has excellent predictive value for efficacy in rheumatoid arthritis. CIA is induced by immunization with type II collagen emulsified in Complete Freund's Adjuvant, followed by a booster immunization with type II collagen emulsified in incomplete Freund's Adjuvant. Three to four weeks after immunization, inflammation develops in mouse paws, Treatment is initiated at, the time of immunization and continues for 6 weeks. […] CIA is scored blind, by a person unaware of both treatment and of previous scores for each animal. The animal's score is the total of all four paw scores on scale of 0-16, where each paw is scored as follows: 0 Normal paw; 1 One toe inflamed and swollen; 2 More than one toe, but not entire paw, inflamed and swollen, or mild swelling of entire paw; 3 Entire paw inflamed and swollen; 4 Very inflamed and swollen paw or ankylosed paw.
# Human alpha-thrombin = Human alpha-thrombin (Homo sapiens (Human), UniProt P00734); assay: Thrombin counterscreen for selectivity, fluorogenic substrate cleavage; type: biochemical; conditions: 10 min pre-incubation, Boc-Val-Pro-Arg-AMC 20 μM
# Sequence of Human FXIIa (P00748 373-615): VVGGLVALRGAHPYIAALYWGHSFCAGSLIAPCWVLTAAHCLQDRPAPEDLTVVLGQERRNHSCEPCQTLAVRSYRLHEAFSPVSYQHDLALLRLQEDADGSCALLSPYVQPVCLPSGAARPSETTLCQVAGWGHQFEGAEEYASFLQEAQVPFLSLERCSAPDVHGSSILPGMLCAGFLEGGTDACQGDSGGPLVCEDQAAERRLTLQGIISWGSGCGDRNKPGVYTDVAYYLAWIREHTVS
# Sequence of Human FXIIa (P00748 20-372 partner): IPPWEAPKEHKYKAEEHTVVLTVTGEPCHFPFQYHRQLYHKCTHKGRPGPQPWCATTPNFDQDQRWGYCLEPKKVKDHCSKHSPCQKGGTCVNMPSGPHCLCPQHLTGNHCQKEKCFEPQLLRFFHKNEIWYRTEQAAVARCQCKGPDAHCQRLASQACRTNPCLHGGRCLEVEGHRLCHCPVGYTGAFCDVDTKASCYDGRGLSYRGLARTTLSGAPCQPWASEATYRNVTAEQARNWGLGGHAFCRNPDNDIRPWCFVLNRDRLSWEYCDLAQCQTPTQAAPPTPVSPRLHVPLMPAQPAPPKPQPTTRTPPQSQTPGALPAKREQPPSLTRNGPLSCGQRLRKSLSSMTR
SMILES,IC50 (Human FXIIa) [µM],Effect on disease phenotype compared to placebo ([1]; CIA model),"Maximum CIA score ± SD ([1]; scale 0-16, p value 0.0175 vs vehicle)",IC50 (Human alpha-thrombin) [µM]
"Cc1cccc2c1NCCC2C(=O)n1nc2c(c1N)CCN(S(C)(=O)=O)C2 (single isomer, unassigned) [Example 35, (S*)-(3-amino-6-(methylsulfonyl)-4,5,6,7-tetrahydropyrazolo[3,4-c]pyridine-2-yl)(8-methyl-1,2,3,4-tetrahydroquinolin-4-yl)methanone]",0.02,significantly ameliorated the disease phenotype compared to placebo,5.6 ± 3.7,18
"CCN1CCc2nn(C(=O)C3CCNc4ccccc43)c(N)c2C1 (stereo not drawn) [Example 93, (3-amino-5-ethyl-4,5,6,7-tetrahydro-pyrazolo[4,3-c]pyridin-2-yl)(1,2,3,4-tetrahydro-quinolin-4-yl)methanone]",1.3,,,> 100
"Nc1c2c(nn1C(=O)C1CCNc3ccc(F)cc31)CN(S(=O)(=O)c1cccnc1)CC2 (stereo not drawn) [Example 157, (3-amino-6-(pyridin-3-ylsulfonyl)-4,5,6,7-tetrahydro-pyrazolo[3,4-c]pyridin-2-yl)(6-fluoro-1,2,3,4-tetrahydro-quinolin-4-yl)methanone]",0.7,,,15
"CNS(=O)(=O)N1CCc2c(N)nn(C(=O)C3CCNc4ccccc43)c2C1 (stereo not drawn) [Example 112, 3-amino-N-methyl-1-(1,2,3,4-tetrahydro-quinoline-4-carbonyl)-4,5-dihydro-1H-pyrazolo[3,4-c]pyridine-6(7H)-sulfonamide]",> 70,,,> 70
"CS(=O)(=O)N1CCc2c(N)nn(C(=O)C3CCNc4ccc(C(F)(F)F)cc43)c2C1 (stereo not drawn) [Example 25, (3-amino-6-(methylsulfonyl)-4,5,6,7-tetrahydropyrazolo[3,4-c]pyridin-1-yl)(6-(trifluoromethyl)-1,2,3,4-tetrahydroquinolin-4-yl)methanone]",40,,,> 70
